Laboratory results: US11090304B2 (Amgen Inc., priority 2018, dated 2021)

biological target: GDP-bound KRAS protein (aa 1-169), containing both G12C and C118A amino acid substitutions (Homo sapiens, UniProt P01116, C118A/G12C); assay: Coupled nucleotide exchange assay (SOS-mediated, AlphaScreen); format: biochemical; conditions: 5 min compound pre-incubation
Sequence (P01116 1-169 isoform P01116-2 G12C/C118A): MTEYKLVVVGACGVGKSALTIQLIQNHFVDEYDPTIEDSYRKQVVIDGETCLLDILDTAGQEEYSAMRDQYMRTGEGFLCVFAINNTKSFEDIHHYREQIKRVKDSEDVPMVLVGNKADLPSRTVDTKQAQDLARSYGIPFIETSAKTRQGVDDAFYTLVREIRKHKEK

Structure (SMILES)	Coupled exchange IC50 (5 min)
C=CC(=O)N1CCN(c2nc(=O)n(Cc3ccc(OC)cc3)c3nc(-c4c(O)cccc4F)c(Cl)cc23)[C@@H](C)C1 [Example 55-32, 6-chloro-7-(2-fluoro-6-hydroxyphenyl)-1-(4-methoxybenzyl)-4-((2S)-2-methyl-4-(2-propenoyl)-1-piperazinyl)pyrido[2,3-d]pyrimidin-2(1H)-one]	3.07 | nda μM
C=CC(=O)N1CCN(c2nc(=O)n(C)c3nc(-c4ccccc4F)c(Cl)cc23)[C@@H](C)C1 [Example 55-33, 6-chloro-7-(2-fluorophenyl)-1-methyl-4-((2S)-2-methyl-4-(2-propenoyl)-1-piperazinyl)pyrido[2,3-d]pyrimidin-2(1H)-one]	45.8 | nda μM
C=CC(=O)N1CCN(c2nc(=O)n(C)c3nc(-c4c(O)cccc4F)c(Cl)cc23)[C@@H](C)C1 [Example 55-34, 6-chloro-7-(2-fluoro-6-hydroxyphenyl)-1-methyl-4-((2S)-2-methyl-4-(2-propenoyl)-1-piperazinyl)pyrido[2,3-d]pyrimidin-2(1H)-one]	20.8 | nda μM
C=CC(=O)N1CCN(c2nc(=O)n(C)c3nc(-c4c(C)ccc5[nH]ncc45)c(Cl)cc23)[C@@H](C)C1 [Example 55-36, 6-chloro-1-methyl-7-(5-methyl-1H-indazol-4-yl)-4-((2S)-2-methyl-4-(2-propenoyl)-1-piperazinyl)pyrido[2,3-d]pyrimidin-2(1H)-one]	38.6 | nda μM
C=CC(=O)N1CCN(c2nc(=O)n(-c3c(C)cnn3C(C)(C)C)c3nc(-c4ccccc4F)c(Cl)cc23)[C@@H](C)C1 [Example 55-38, 6-chloro-7-(2-fluorophenyl)-1-(4-methyl-1-(2-methyl-2-propanyl)-1H-pyrazol-5-yl)-4-((2S)-2-methyl-4-(2-propenoyl)-1-piperazinyl)pyrido[2.3-d]pyrimidin-2(1H)-one]	0.377 | nda μM
C=CC(=O)N1CCN(c2nc(=O)n(-c3cn[nH]c3C(C)C)c3nc(-c4ccccc4F)c(Cl)cc23)[C@@H](C)C1 [Example 55-42, 6-chloro-7-(2-fluorophenyl)-4-((2S)-2-methyl-4-(2-propenoyl)-1-piperazinyl)-1-(5-(2-propanyl)-1H-pyrazol-4-yl)pyrido[2,3-d]pyrimidin-2(1H)-one]	0.351 | nda μM
C=CC(=O)N1CCN(c2nc(=O)n(-c3scnc3C3CC3)c3nc(-c4c(O)cccc4F)c(Cl)cc23)[C@@H](C)C1 [Example 56-3, 6-chloro-1-(4-cyclopropyl-1,3-thiazol-5-yl)-7-(2-fluoro-6-hydroxyphenyl)-4-((2S)-2-methyl-4-(2-propenoyl)-1-piperazinyl)pyrido[2,3-d]pyrimidin-2(1H)-one]	3.85 | nda μM
C=CC(=O)N1CCN(c2nc(=O)n(-c3scnc3C3CC3)c3nc(-c4ccccc4F)c(Cl)cc23)[C@@H](C)C1 [Example 56-4, 6-chloro-1-(4-cyclopropyl-1,3-thiazol-5-yl)-7-(2-fluorophenyl)-4-((2S)-2-methyl-4-(2-propenoyl)-1-piperazinyl)pyrido[2,3-d]pyrimidin-2(1H)-one]	5.32 | nda μM
C=CC(=O)N1CCN(c2nc(=O)n(-c3ccccc3C(C)C)c3nc(-c4cccc(OC(F)F)c4)c(Cl)cc23)[C@@H](C)C1 [Example 56-8, 6-chloro-7-(3-(difIuoromethoxy)phenyl)-4-((2S)-2-methyl-4-(2-propenoyl)-1-piperazinyl)-1-(2-(2-propanyl)phenyl)pyrido[2,3-d]pyrimidin-2(1H)-one]	1.56 | nda μM
C=CC(=O)N1CCN(c2nc(=O)n(-c3ccccc3C(C)C)c3nc(-c4c(O)cccc4F)c(F)cc23)[C@@H](C)C1 [Example 57-6, 6-fluoro-7-(2-fluoro-6-hydroxyphenyl)-4-((2S)-2-methyl-4-(2-propenoyl)-1-piperazinyl)-1-(2-(2-propanyl)phenyl)pyrido[2,3-d]pyrimidin-2(1H)-one]	1.67 | nda μM
C=CC(=O)N1CCN(c2nc(=O)n(-c3c(C)ccnc3CC)c3nc(-c4ccccc4F)c(F)cc23)[C@@H](C)C1 [Example 57-16, 1-(2-ethyl-4-methyl-3-pyridinyl)-6-fluoro-7-(2-fluorophenyl)-4-((2S)-2-methyl-4-(2-propenoyl)-1-piperazinyl)pyrido[2,3-d]pyrimidin-2(1H)-one]	3.79 | nda μM
C=CC(=O)N1CCN(c2nc(=O)n(-c3c(C)ccnc3C3CC3)c3nc(-c4ccccc4F)c(F)cc23)[C@@H](C)C1 [Example 57-18, 1-(2-cyclopropyl-4-methyl-3-pyridinyl)-6-fluoro-7-(2-fluorophenyl)-4-((2S)-2-methyl-4-(2-propenoyl)-1-piperazinyl)pyrido[2,3-d]pyrimidin-2(1H)-one]	1.73 | nda μM
C=CC(=O)N1CCN(c2nc(=O)n(-c3c(C)cccc3C3CC3)c3nc(-c4ccccc4F)c(F)cc23)[C@@H](C)C1 [Example 58-14, 1-(2-cyclopropyl-6-methylphenyl)-6-fluoro-7-(2-fluorophenyl)-4-((2S)-2-methyl-4-(2-propenoyl)-1-piperazinyl)pyrido[2,3-d]pyrimidin-2(1H)-one]	2.45 | nda μM
C=CC(=O)N1CCN(c2nc(=O)n(-c3ccccc3C(C)(C)C)c3nc(-c4ccccc4F)c(F)cc23)[C@@H](C)C1 [Example 58-17, 6-fluoro-7-(2-fluorophenyl)-1-(2-(2-methyl-2-propanyl)phenyl)-4-((2S)-2-methyl-4-(2-propenoyl)-1-piperazinyl)pyrido[2,3-d]pyrimidin-2(1H)-one]	1.68 | nda μM
C=CC(=O)N1CCN(c2nc(=O)n(-c3c(C4CC4)ccnc3C)c3nc(-c4ccccc4F)c(F)cc23)[C@@H](C)C1 [Example 58-20, 1-(4-cyclopropyl-2-methyl-3-pyridinyl)-6-fluoro-7-(2-fluorophenyl)-4-((2S)-2-methyl-4-(2-propenoyl)-1-piperazinyl)pyrido[2,3-d]pyrimidin-2(1H)-one]	1.96 | nda μM
C=CC(=O)N1CCN(c2nc(=O)n(-c3c(C)ccnc3C(C)C)c3nc(Cl)c(F)cc23)[C@@H](C)C1 [Example 58-21, 7-chloro-6-fluoro-1-(4-methyl-2-(2-propanyl)-3-pyridinyl)-4-((2S)-2-methyl-4-(2-propenoyl)-4-piperazinyl)pyrido[2,3-d]pyrimidin-2(1H)-one]	17.5 | nda μM
C=CC(=O)N1CCN(c2nc(=O)n(-c3c(CC)ncnc3CC)c3nc(-c4ccccc4F)c(F)cc23)[C@@H](C)C1 [Example 58-22, 1-(4,6-diethyl-5-pyrimidinyl)-6-fluoro-7-(2-fluorophenyl)-4-((2S)-2-methyl-4-(2-propenoyl)-1-piperazinyl)pyrido[2,3-d]pyrimidin-2(1H)-one]	2.71 | nda μM
C=CC(=O)N1CCN(c2nc(=O)n(-c3ccccc3C3(C(F)(F)F)CC3)c3nc(-c4c(O)cccc4F)c(F)cc23)[C@@H](C)C1 [Example 59-1, 6-Fluoro-7-(2-fluoro-6-hydroxyphenyl)-4-((2S)-2-methyl-4-(2-propenoyl)-1-piperazinyl)-1-(2-(1-(trifluoromethyl)cyclopropyl)phenyl)pyrido[2,3-d]pyrimidin-2(1H)-one]	2.98 | nda μM
C=CC(=O)N1CCN(c2nc(=O)n(-c3c(C4CC4)ncnc3C3CC3)c3nc(-c4ccccc4F)c(F)cc23)[C@@H](C)C1 [Example 59-5, 1-(4,6-dicyclopropyl-5-pyrimidinyl)-6-fluoro-7-(2-fluorophenyl)-4-((2S)-2-methyl-4-(2-propenoyl)-1-piperazinyl)pyrido[2,3-d]pyrimidin-2(1H)-one]	0.501 | nda μM
C=CC(=O)N1CCN(c2nc(=O)n(-c3ccccc3C)c3nc(Cl)c(Cl)cc23)[C@@H](C)C1 [Example 60-12, 6,7-dichloro-1-(2-methylphenyl)-4-((2S)-2-methyl-4-(2-propenoyl)-1-piperazinyl)pyrido[2,3-d]pyrimidin-2(1H)-one]	22.2 | nda μM
C=CC(=O)N1CCN(c2nc(=O)n(-c3ccccc3C)c3nc(OCCCC)c(Cl)cc23)[C@@H](C)C1 [Example 60-13, 7-butoxy-6-chloro-1-(2-methylphenyl)-4-((2S)-2-methyl-4-(2-propenoyl)-1-piperazinyl)pyrido[2,3-d]pyrimidin-2(1H)-one]	85 | nda μM
C=CC(=O)N1CCN(c2nc(=O)n(-c3c(F)cccc3F)c3nc(Cl)c(Cl)cc23)[C@@H](C)C1 [Example 60-16, 6,7-dichloro-1-(2,6-difluorophenyl)-4-((2S)-2-Methyl-4-(2-propenoyl)-1-piperazinyl)pyrido[2,3-d]pyrimidin-2(1H)-one]	46.1 | nda μM
C=CC(=O)N1CCN(c2nc(=O)n(-c3c(F)cccc3F)c3nc(-c4c(O)cccc4F)c(Cl)cc23)[C@@H](C)C1 [Example 60-17, 6-chloro-1-(2,6-difluorophenyl)-7-(2-fluoro-6-hydroxyphenyl)-4-((2S)-2-methyl-4-(2-propenoyl)-1-piperazinyl)pyrido[2,3-d]pyrimidin-2(1H)-one]	5.74 | nda μM
C=CC(=O)N1CCN(c2nc(=O)n(CC3CCN(C(=O)OC(C)(C)C)CC3)c3nc(Cl)c(Cl)cc23)[C@@H](C)C1 [Example 60-25, 2-methyl-2-propanyl 4-((6,7-dichloro-4-((2S)-2-methyl-4-(2-propenoyl)-1-piperazinyl)-2-oxopyrido[2,3-d]pyrimidin-1(2H)-yl)methyl)-1-piperidinecarboxylate]	25.5 | nda μM

same assay, conditions: 2 h compound pre-incubation

Structure (SMILES)	Coupled exchange IC50 (2 h)
C=CC(=O)N1CCN(c2nc(=O)n(CC3(C(F)(F)F)CC3)c3nc(Cl)c(Cl)cc23)CC1 [Example 60-2, 6,7-dichloro-4-(4-(2-propenoyl)-1-piperazinyl)-1-((1-(trifluoromethyl)cyclopropyl)methyl)pyrido[2,3-d]pyrimidin-2(1H)-one]	nda | 7.62 μM
C=CC(=O)N1CCN(c2nc(=O)n(Cc3ccccn3)c3nc(-c4c(O)cccc4F)c(Cl)cc23)CC1 [Example 60-7]	nda | 26.9 μM
